Reference: ChEMBL document CHEMBL2150900, “β-Lactam synthon-interceded diastereoselective synthesis of functionalized octahydroindole-based molecular scaffolds and their in vitro cytotoxic evaluation” (Eur J Med Chem, 2012)

Assay: Cytotoxicity against human WHCO1 cells after 48 hrs by MTT assay
Type: functional, cell-based
Conditions: WHCO1, 48 h

Compound	IC50
O=C1NC(=O)[C@@H]2CC[C@@H](I)[C@H]3[C@@H]2[C@@H]1[C@@H](c1ccc(Cl)cc1)N3c1ccccc1 (racemic)	17.6 µM
COC(=O)[C@H]1[C@H]2[C@H]([C@H](I)CC[C@@H]2C(=O)OC)N(c2ccccc2)[C@H]1c1ccc(Cl)cc1 (racemic)	36.8 µM
COC(=O)[C@H]1[C@H]2[C@H]([C@H](I)CC[C@@H]2C(=O)OC)N(c2ccc(C)cc2)[C@H]1c1ccc(OC)cc1 (racemic)	37.8 µM
Cc1ccc([C@@H]2[C@@H]3C(=O)NC(=O)[C@@H]4CC[C@@H](I)[C@@H]([C@H]34)N2c2ccc(C)cc2)cc1 (racemic)	14.1 µM
COC(=O)[C@H]1[C@H]2[C@H]([C@H](I)CC[C@@H]2C(=O)OC)N(c2ccc(C)cc2)[C@H]1c1ccccc1 (racemic)	40.3 µM
COC(=O)[C@H]1[C@H]2[C@H]([C@H](I)CC[C@@H]2C(=O)OC)N(c2ccccc2)[C@H]1c1ccc(OC)cc1 (racemic)	37.1 µM
Cc1ccc(N2[C@@H]3[C@@H]4[C@@H](C(=O)NC(=O)[C@@H]4CC[C@H]3I)[C@H]2c2ccc(Cl)cc2)cc1 (racemic)	13 µM
COC(=O)[C@H]1[C@H]2[C@H]([C@H](I)CC[C@@H]2C(=O)OC)N(c2ccccc2)[C@H]1c1ccccc1 (racemic)	88.1 µM
